What was measured:
[1] = test system: rabbit anti-PAH antisera (anti-analyte antibody on paramagnetic particles); conditions: for 50% B/Bo: concentration giving mean absorbance 0.5 times that of the Diluent/Zero Standard, competitive immunoassay, 450 nm; for LDD (least detectable dose): estimated as the dose needed to generate a B/Bo of 90%
[2] = Study of Standard Stability (B/Bo as a function of time of storage); conditions: after 200 days of storage at 4° C. (FIG. 2)
Experimental: The vials were then capped with Teflon coated caps and crimped. The vials were then separated into five groups. Each group was then placed at a different temperature (-20° C., 2°-8° C., 20°-25° C., 37° C. and 50° C.) in an upright position. Standards were tested for B/Bo at specified intervals by assaying each standard level in duplicate for each temperature. The results were then graphed as a function of time (x) versus B/Bo(y) by temperature level.

c1ccc2cc3c(ccc4ccccc43)cc2c1 [1,2 benzoanthracene]
50% B/Bo [1]: 28.4 ppb | LDD (least detectable dose) [1]: 0.77 ppb

c1ccc2cc3ccccc3cc2c1 [anthracene]
50% B/Bo [1]: 11.0 ppb | LDD (least detectable dose) [1]: 0.54 ppb

c1ccc2c(c1)cc1ccc3cccc4ccc2c1c34 [benzo(a)pyrene]
50% B/Bo [1]: 6.9 ppb | LDD (least detectable dose) [1]: 0.50 ppb

c1ccc2c(c1)-c1cccc3c1c-2cc1ccccc13 [benzo(b)fluoranthene]
50% B/Bo [1]: 54.2 ppb | LDD (least detectable dose) [1]: 0.91 ppb

c1ccc2cc3c(cc2c1)-c1cccc2cccc-3c12 [benzo(k)fluoranthene]
50% B/Bo [1]: 524 ppb | LDD (least detectable dose) [1]: 0.77 ppb

c1ccc2c(c1)ccc1c3ccccc3ccc21 [chrysene]
50% B/Bo [1]: 7.8 ppb | LDD (least detectable dose) [1]: 0.40 ppb

c1ccc2c(c1)-c1cccc3cccc-2c13 [fluoranthene]
50% B/Bo [1]: 4.7 ppb | LDD (least detectable dose) [1]: 0.32 ppb

c1ccc2c(c1)Cc1ccccc1-2 [fluorene]
50% B/Bo [1]: 35.2 ppb | LDD (least detectable dose) [1]: 1.65 ppb

c1ccc2c(c1)-c1ccc3ccc4cccc5cc-2c1c3c45 [indeno(1,2,3-c,d)pyrene]
50% B/Bo [1]: 27.2 ppb | LDD (least detectable dose) [1]: 0.78 ppb

c1ccc2c(c1)ccc1ccccc12 [phenanthrene, reference compound]
50% B/Bo [1]: 16.5 ppb | LDD (least detectable dose) [1]: 0.70 ppb | apparent increase in B/Bo on storage [2]: 25%

c1cc2ccc3cccc4ccc(c1)c2c34 [pyrene]
50% B/Bo [1]: 7.7 ppb | LDD (least detectable dose) [1]: 0.20 ppb

— patent publication US5780250A, “Immunoassay standards for polyaromatic hydrocarbon detection” (Strategic Diagnostics, Inc., priority 1996, dated 1998)
